15 molecules from article PMC12596928 (Chembiochem, 2025) can be followed below.

What is called inhibition is the percentage by which the read-out fell short of the control. One may read the IC50 as the point on the concentration scale where inhibition reaches its midpoint. Broadly, the Inhibition is the percentage by which the read-out fell short of the control. The low end stands for a response near the control, the high end for a response far below the control.

Assay [1] concerns the target T1, SdeA (Legionella pneumophila subsp. pneumophila, UniProt Q5ZTK4). It counts as biochemical.
The target of assay [2] is T1, SdeA. The assay can be described thus: biochemical.
The target of assay [3] is T1, SdeA. Put plainly: biochemical. The source holds these as a separate data set.

Each structure is given as a SMILES string. Values joined by “and” are separate entries in the source; they are usually repeats but may differ in a detail not shown here. Equal values may be shown once. Where a name gives a salt, the structure may show the parent alone. Read-outs that look alike come from different tables or passages of the source.

T1 sequence (Q5ZTK4 231-1190 limits assumed): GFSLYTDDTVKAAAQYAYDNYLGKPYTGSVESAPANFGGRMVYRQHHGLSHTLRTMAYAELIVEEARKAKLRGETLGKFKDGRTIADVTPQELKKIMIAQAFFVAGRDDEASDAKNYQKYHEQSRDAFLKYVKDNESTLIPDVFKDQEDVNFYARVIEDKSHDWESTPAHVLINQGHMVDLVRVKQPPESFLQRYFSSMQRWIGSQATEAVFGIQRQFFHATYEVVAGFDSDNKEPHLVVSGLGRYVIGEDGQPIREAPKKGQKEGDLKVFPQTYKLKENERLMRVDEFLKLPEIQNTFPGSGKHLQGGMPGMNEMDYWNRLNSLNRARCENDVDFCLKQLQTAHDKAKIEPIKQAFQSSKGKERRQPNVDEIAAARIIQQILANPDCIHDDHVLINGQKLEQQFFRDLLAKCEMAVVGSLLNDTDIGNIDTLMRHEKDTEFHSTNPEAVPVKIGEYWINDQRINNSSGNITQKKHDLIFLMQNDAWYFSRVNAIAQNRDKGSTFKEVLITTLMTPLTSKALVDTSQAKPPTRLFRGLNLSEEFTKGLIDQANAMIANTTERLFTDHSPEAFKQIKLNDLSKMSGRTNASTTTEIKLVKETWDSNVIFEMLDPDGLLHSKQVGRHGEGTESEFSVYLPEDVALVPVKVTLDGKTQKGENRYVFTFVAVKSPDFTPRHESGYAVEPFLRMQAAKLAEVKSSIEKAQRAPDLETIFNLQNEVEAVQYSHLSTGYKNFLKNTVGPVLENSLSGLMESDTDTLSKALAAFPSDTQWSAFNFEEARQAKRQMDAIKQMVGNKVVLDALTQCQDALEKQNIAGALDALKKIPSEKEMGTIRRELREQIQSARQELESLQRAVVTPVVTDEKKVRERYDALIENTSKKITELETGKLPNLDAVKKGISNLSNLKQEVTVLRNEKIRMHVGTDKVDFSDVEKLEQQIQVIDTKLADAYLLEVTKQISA

Regarding `NC(=O)c1cccc(N)c1` [3‐AB, 3‐aminobenzamide], the “behaviour as potential positive control” value at SdeA [1] was “auto‐fluorescent”.

On to `O=C(O)C1=CC(=C(c2ccc(O)c(C(=O)O)c2)c2ccc(O)c(C(=O)O)c2)C=CC1=O` [Aurintricarboxylic acid], for which the inhibition at 5 µM against SdeA [2] stood at 96.3%.

On to `O=[N+]([O-])[O-].O=[N+]([O-])[O-].[Cd+2]` [Cd(NO3)2], for which the IC50 at SdeA [3] (read-out: IC50) is 29.8 µM.

On SdeA [2], `CC(=O)OCC1=C(C(=O)O)N2C(=O)[C@@H](NC(=O)CCC[C@@H](N)C(=O)O)[C@H]2SC1` [Cephalosporin C zinc salt, cephalosporin C Zn^2+ salt] had an Inhibition of 75% and an inhibition at 5 µM of 74.6%. Moreover, the IC50 against SdeA [3] (IC50) was 0.221 µM and 0.2 µM.

Consider `[Cl][Cu][Cl]` [CuCl2], for which the IC50 at SdeA [3] (read-out: IC50) worked out at 12.3 µM.

Take `O=c1cc(-c2ccccc2)oc2c(O)c(O)ccc12` [Dihydroxyflavone]: testing at 5 µM against SdeA [2] gave an inhibition of 96.5%.

Consider `O=c1cc2c(=O)oc3cc(O)c(O)oc3c2c(O)c1O` [Galloflavin potassium salt], for which the inhibition at 5 µM on SdeA [2] came to 92.4%.

As for `[Cl-].[Cl-].[Mg+2]` [MgCl2], the “IC50 (μM)” value against SdeA [3] is “do not show any inhibitory effect and n.i”.

In the case of `[Cl][Mn][Cl]` [MnCl2], the “IC50 (μM)” value at SdeA [3] was “do not show any inhibitory effect and n.i”.

Take `[Cl][Ni][Cl]` [NiCl2]: the IC50 at SdeA [3] (read-out: IC50) worked out at 67.1 µM.

Take `CCCCCCCC(=O)ON1C(=O)CCC1=O` [N‐succinimidyl octanoate]: the “inhibition of SdeA” value against SdeA [1] was “full inhibition”.

For the molecule `O=[N+]([O-])[O-].O=[N+]([O-])[O-].[Pb+2]` [Pb(NO3)2], the IC50 at SdeA [3] (read-out: IC50) came out at 43.6 µM.

The molecule `O=c1c(O)c(-c2ccc(O)c(O)c2)oc2cc(O)cc(O)c12` [Quercetin dihydrate] yielded an inhibition at 5 µM against SdeA [2] of 52.2%.

For the molecule `N#CC(C#N)=C(N)/C(C#N)=C/c1cc(O)c(O)c(O)c1` [Tyrphostin A51], the inhibition at 5 µM against SdeA [2] was found to be 98.2%.

On to `[Cl-].[Cl-].[Zn+2]` [ZnCl2], for which, at SdeA [3], the “fold difference in IC50 between zinc and copper” value came to 40 fold. Moreover, the IC50 at SdeA [3] (read-out: IC50) was 0.46 µM and 0.3 µM.
